The Biogen ADME set (Fang et al. 2023)
Values after ≈ are worked out from the molar mass of the structure shown.

Conditions: for aqueous solubility: pH 6.8

| MDR1-MDCK efflux ratio | intrinsic clearance, human liver microsomes | intrinsic clearance, rat liver microsomes | aqueous solubility | SMILES |
| --- | --- | --- | --- | --- |
| 2.37 | 5.78 mL/min/kg | 151 mL/min/kg | 63.1 µg/mL (≈ 182 µM) | O=C(c1cccs1)N1C[C@@H]2CCCN(C(=O)c3cccs3)[C@@H]2C1 |
| 0.676 | 37.6 mL/min/kg | 14.3 mL/min/kg | – | O=C(Nc1cncc2ccccc12)c1ncccn1 |
| 2.06 | 6.12 mL/min/kg | 211 mL/min/kg | 44.3 µg/mL (≈ 137 µM) | Cc1ccccc1CC(=O)N1CCN(C(=O)c2ccccc2)CC1 |
| 4.87 | 8.89 mL/min/kg | 129 mL/min/kg | 14.3 µg/mL (≈ 57.5 µM) | N#Cc1cc(-c2n[nH]c(-c3ccncc3)n2)ccn1 |
| 0.474 | 147 mL/min/kg | 2320 mL/min/kg | 31.2 µg/mL (≈ 98.9 µM) | O=C(NCc1ccc2c(c1)OCCO2)c1sccc1C1CC1 |
| 2.87 | 7.42 mL/min/kg | 152 mL/min/kg | – | CCCNC(=O)C1(NCc2csnn2)CCCCC1 |
| – | 110 mL/min/kg | 1040 mL/min/kg | – | O=C(Nc1ccccc1)c1scnc1-c1ccccc1 |
| – | – | – | 0.79 µg/mL (≈ 2.15 µM) | O=C(O)c1c(O)c(Cc2ccc(Cl)cc2)nc2c3c(ccc12)CCCC3 |
| 2.28 | 13.2 mL/min/kg | 107 mL/min/kg | 50.9 µg/mL (≈ 139 µM) | CN(CCN1CCOC1=O)C(=O)c1cc2cc(Br)ccc2o1 |
| 30.1 | 18.4 mL/min/kg | 119 mL/min/kg | 20.2 µg/mL (≈ 48.5 µM) | Cc1ccc2c(c1)C(=O)CC1(CCN(C(=O)c3ccc4nc(C)cc(O)c4c3)CC1)O2 |
| – | – | – | 0.83 µg/mL (≈ 2.13 µM) | CCOC(=O)c1ccc(S(=O)(=O)N2CCc3cc(C(=O)OC)ccc32)cc1 |
| 0.474 | 780 mL/min/kg | 2050 mL/min/kg | – | COC(=O)c1cccc2c1CCCN2C(=O)c1ccccc1 |
| – | 18.1 mL/min/kg | 394 mL/min/kg | – | Cc1nc(-c2cccc(C(N)=O)c2)sc1-c1ccc(F)cc1 |
| 0.389 | 42.2 mL/min/kg | 1190 mL/min/kg | 47 µg/mL (≈ 153 µM) | COc1ccc(-c2cn3c4ccccc4nc3n2CCO)cc1 |
| 0.631 | 19.2 mL/min/kg | 248 mL/min/kg | 27.9 µg/mL (≈ 138 µM) | CSCc1csc(NC(C)=O)n1 |
| 11.5 | ≤ 4.74 mL/min/kg | 323 mL/min/kg | – | CCN1CCC(CCNc2ncc(C)c(N(C)C)n2)CC1 |
| 0.559 | 120 mL/min/kg | 436 mL/min/kg | – | Cc1ccc(-n2cc(C)cn2)c(NC(=O)CN(C)C)c1 |
| 21.8 | – | – | 0.91 µg/mL (≈ 2.19 µM) | Cc1ccccc1Cn1c(=O)c2c(nc3n(-c4ccccc4O)c(C)cn23)n(C)c1=O |
| – | 122 mL/min/kg | 2620 mL/min/kg | – | CC(C)(C)c1csc(Cn2ccnc2-c2ccccn2)n1 |

| MDR1-MDCK efflux ratio | intrinsic clearance, human liver microsomes | intrinsic clearance, rat liver microsomes | aqueous solubility | SMILES |
| --- | --- | --- | --- | --- |
| 9.31 | 155 mL/min/kg | 1170 mL/min/kg | 1.5 µg/mL (≈ 3.61 µM) | CN1C(=O)COc2ccc(NC(=O)CCN3C(=O)COc4ccc(Cl)cc43)cc21 |
| 11.5 | 80.7 mL/min/kg | 294 mL/min/kg | – | Cc1c(C(=O)Nc2ccc(N3CCC(N4CCOCC4)CC3)c(C#N)c2)cnn1-c1ccc(Cl)cc1 |
| 11.8 | ≤ 4.74 mL/min/kg | 13.3 mL/min/kg | – | CC(C)(O)CCn1cc2cc(NC(=O)c3ccn(C(F)F)n3)c(OCC3COC3)cc2n1 |
| – | – | – | 2.4 µg/mL (≈ 7.29 µM) | c1ccc2nc(N3CCC(c4nc5ccccc5[nH]4)CC3)cnc2c1 |
| 1.11 | 5.03 mL/min/kg | 50.9 mL/min/kg | 59.7 µg/mL (≈ 161 µM) | COc1ccc(N2CCCN(CC3CCN(C(=O)C4CC4)CC3)CC2)cc1 |
| 2.65 | 32.1 mL/min/kg | 379 mL/min/kg | – | CC(C)c1ccc(CN2CCN(C(=O)C3CCN(C(=O)C4CC4)CC3)CC2)cc1 |
| 5.08 | 15.7 mL/min/kg | 245 mL/min/kg | 42.5 µg/mL (≈ 98.2 µM) | COc1ccc(NC(=O)CN2CCC(c3cc(-c4cnc(N)nc4)cc(C)n3)CC2)cc1 |
| 28.2 | 103 mL/min/kg | 924 mL/min/kg | 67.7 µg/mL (≈ 173 µM) | CC(=O)N1CCCN(C(=O)Nc2ccc(N(C)C3CCCCC3)c(F)c2)CC1 |
| – | 34.9 mL/min/kg | 446 mL/min/kg | 41 µg/mL (≈ 154 µM) | CCONC(=O)c1cnn(-c2cccc(Cl)c2)c1 |
| 20.1 | ≤ 4.74 mL/min/kg | 38.8 mL/min/kg | 36.5 µg/mL (≈ 133 µM) | Cc1cc(-c2nccs2)nc(CC2CCNCC2)n1 |
| – | 7.61 mL/min/kg | 17.1 mL/min/kg | – | CCC(C)(C)c1ccc(Oc2ccc(NC3=NN(c4ccccc4)C(=O)C3)cc2)cc1 |
| 1.06 | ≤ 4.74 mL/min/kg | 65.2 mL/min/kg | 49.1 µg/mL (≈ 171 µM) | O=C(CN1CCC(c2ccccc2)CC1)N1CCNC1=O |
| 0.607 | 33 mL/min/kg | 204 mL/min/kg | 34.9 µg/mL (≈ 133 µM) | Cc1cnc(CNCc2cccc3c2OCO3)s1 |
| 5.44 | 25.4 mL/min/kg | 62.9 mL/min/kg | – | C[C@]12C=CC(=O)C=C1CC[C@@H]1[C@@H]2[C@@H](O)C[C@@]2(C)[C@H]1CC[C@]2(O)C(=O)CO |
| – | 133 mL/min/kg | 122 mL/min/kg | – | COc1cc(Nc2ncc(F)c(Nc3ccc4c(n3)NC(=O)C(C)(C)O4)n2)cc(OC)c1OC |
| 0.788 | ≤ 4.74 mL/min/kg | ≤ 10.7 mL/min/kg | 29 µg/mL (≈ 145 µM) | CCONC(=O)c1sc(C)nc1C |
| 0.697 | ≤ 4.74 mL/min/kg | ≤ 10.7 mL/min/kg | 26.5 µg/mL (≈ 131 µM) | N#Cc1ccc(Cn2cncn2)c(F)c1 |
| 0.513 | 62.7 mL/min/kg | 272 mL/min/kg | 42.8 µg/mL (≈ 145 µM) | Cc1nc(N2CCOc3ccccc3C2)c2cnn(C)c2n1 |
| 7.24 | ≤ 4.74 mL/min/kg | 32.1 mL/min/kg | 55.7 µg/mL (≈ 227 µM) | Cc1noc(C)c1CCC(=O)Nc1cccnc1 |

| MDR1-MDCK efflux ratio | intrinsic clearance, human liver microsomes | intrinsic clearance, rat liver microsomes | aqueous solubility | SMILES |
| --- | --- | --- | --- | --- |
| 0.716 | 27.8 mL/min/kg | 655 mL/min/kg | 18.5 µg/mL (≈ 74.2 µM) | Cc1cc(OCc2ncc(C(C)(C)C)o2)nn1C |
| 3.28 | 246 mL/min/kg | 3020 mL/min/kg | 40.5 µg/mL (≈ 136 µM) | CCc1ccc(-c2nccn2Cc2c(C)nn(CC)c2C)o1 |
| 2.39 | ≤ 4.74 mL/min/kg | ≤ 10.7 mL/min/kg | 42.4 µg/mL (≈ 150 µM) | O=C(O)c1ccc(=O)n(CCc2c[nH]c3ccccc23)c1 |
| – | ≤ 4.74 mL/min/kg | 26 mL/min/kg | – | Cc1cc(NC(=O)c2c(F)cccc2Cl)no1 |
| 0.999 | 43.4 mL/min/kg | 169 mL/min/kg | 22.9 µg/mL (≈ 51.8 µM) | COc1ccc2c(c1)C=C(CN1CCC(c3cc(-c4ccc(N)nc4)cc(C)n3)CC1)CO2 |
| 4.41 | ≤ 4.74 mL/min/kg | 95.2 mL/min/kg | – | CN(CCN1CCCCC1)c1cncc(C(N)=O)n1 |
| 1.85 | – | – | 0.71 µg/mL (≈ 1.61 µM) | N#Cc1ccnc(Nc2cc(C3CCN(C4COC4)CC3)cc(N3CCC(F)(F)C3)n2)c1 |
| 4.9 | 11.4 mL/min/kg | 82.3 mL/min/kg | 59.8 µg/mL (≈ 177 µM) | NC(=O)c1ccc(Oc2ccc(C(=O)N3CCCCCC3)cc2)cc1 |
| 0.674 | 7.74 mL/min/kg | 56.5 mL/min/kg | 46 µg/mL (≈ 163 µM) | O=c1ccc(-c2ccc(F)cc2)nn1Cc1ccncc1 |
| 0.725 | 46.7 mL/min/kg | 106 mL/min/kg | – | Cc1cc(C)n2nc(C)c(C(=O)NCC3CC3)c2n1 |
| 22.2 | 8.38 mL/min/kg | 57.2 mL/min/kg | 59.4 µg/mL (≈ 216 µM) | Cc1nccn1-c1ccc(F)cc1CNC(=O)C(C)C |
| – | 568 mL/min/kg | 2120 mL/min/kg | – | Cc1ccccc1CS(=O)(=O)c1ncc(Cl)c(C(=O)Nc2sc3c(c2C#N)CCCC3)n1 |
| 1.09 | 27.8 mL/min/kg | 585 mL/min/kg | 66.6 µg/mL (≈ 177 µM) | O=C(NCCNc1ncccc1C(F)(F)F)c1cnc2ccccn2c1=O |
| 0.595 | 59.9 mL/min/kg | 654 mL/min/kg | 22.7 µg/mL (≈ 90.9 µM) | CCOc1ncccc1-c1cc(Cl)ccc1O |
| 0.579 | 37.4 mL/min/kg | 631 mL/min/kg | – | CCOc1cc(N2CCOC3(CCCC3)C2)ncn1 |
| 0.579 | ≤ 4.74 mL/min/kg | 2980 mL/min/kg | – | CCS(=O)(=O)N(C)c1ccc(N(C)C)cc1 |
| 117 | 44.7 mL/min/kg | 840 mL/min/kg | – | CNCc1cc(N(C)C)nc(C2CCCN2C(=O)c2oc3ccc(Cl)cc3c2C)n1 (stereo unspecified) |
| 1.87 | 62 mL/min/kg | 1010 mL/min/kg | 54.8 µg/mL (≈ 156 µM) | CCCS(=O)(=O)N1CCCC(C(=O)N2CCc3ccccc3C2)C1 (stereo unspecified) |
| 1.37 | 515 mL/min/kg | 1520 mL/min/kg | 35 µg/mL (≈ 104 µM) | O=C(OCc1cc(Cl)ccn1)c1ccc2[nH]c(C(F)F)nc2c1 |
